Active and inactive are the calls of the source.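 How the source made its calls: active means fitted half-maximal concentration for changing reporter fluorescence at or below a set limit; inactive means the rest.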
Molecular target: Citrate synthase, peroxisomal (Saccharomyces cerevisiae (strain ATCC 204508 / S288c)) (UniProt P08679)
Test: CIT2-GFP expression modulators in yeast, dose response, flow cytometry, MLPCN hits (AID 2744)
Conditions: S. cerevisiae CIT2-GFP strain, 3 h, at 33 µM (top of the series)

Chain of Citrate synthase, peroxisomal (Saccharomyces cerevisiae (strain ATCC 204508 / S288c)) (P08679 whole entry, looked up): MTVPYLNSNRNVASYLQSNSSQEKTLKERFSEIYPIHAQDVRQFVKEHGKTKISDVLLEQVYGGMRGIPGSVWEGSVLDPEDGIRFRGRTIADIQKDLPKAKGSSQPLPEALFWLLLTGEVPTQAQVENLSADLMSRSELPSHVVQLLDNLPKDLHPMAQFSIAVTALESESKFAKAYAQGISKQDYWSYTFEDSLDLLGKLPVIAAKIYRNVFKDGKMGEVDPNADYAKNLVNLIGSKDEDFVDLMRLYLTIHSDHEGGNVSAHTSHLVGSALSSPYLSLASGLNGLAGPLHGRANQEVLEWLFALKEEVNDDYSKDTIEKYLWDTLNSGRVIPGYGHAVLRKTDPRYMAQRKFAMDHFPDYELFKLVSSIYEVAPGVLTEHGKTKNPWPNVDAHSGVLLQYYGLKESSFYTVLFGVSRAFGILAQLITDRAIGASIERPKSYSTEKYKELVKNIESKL

SMILES	GFP fluorescence, higher = induction
Oc1ccc2ccccc2c1/C=N/Nc1nnc(-c2ncc[nH]2)c2ccccc12	inactive
O=C1C(Cl)=C(N2CCN(Cc3ccccc3)CC2)C(=O)N1c1ccccc1	inactive
O=[N+]([O-])c1ccc(S(=O)(=O)c2ccccc2)nc1	inactive
Cc1ccc(N=c2ssnc2Cl)cc1	inactive
O=c1oc2ccccc2c(O)c1[C@H]1c2ccc(O)cc2Oc2c1c(=O)oc1ccccc21	inactive
Cc1ccc(/C=c2\sc3nc(-c4cccs4)nn3c2=O)o1	inactive
Cc1ccc(S(=O)(=O)N2CC(C(=O)O)=CC[C@H]2c2ccc(Cl)cc2)cc1	inactive
O=C(/C=C/c1cccc(Cl)c1)c1nc2ccccc2[nH]1	inactive
COc1ccc(Cl)cc1C(Nc1cccnc1)c1ccc2cccnc2c1O (configuration not stated)	inactive
C[C@H]1C[C@@H](C)C(=O)[C@@H]([C@H](O)CC2CC(=O)NC(=O)C2)C1	inactive
CC(=O)CSc1ncnc2c1cnn2-c1ccccc1	inactive
O=C(/C=C/c1ccnc2ccccc12)c1cccs1	inactive
Oc1c(C(Nc2cccc(C(F)(F)F)c2)c2ccncc2)ccc2cccnc12 (configuration not stated)	inactive
O=C(NC(=S)Nc1ccc2oc(=O)ccc2c1)c1cccc(Cl)c1	inactive
CCOC(=O)c1c(C)oc2c1c(C(c1ccncc1)N1CCOCC1)c(O)c1ccccc12 (configuration not stated)	inactive
CC1=NNC(=O)/C1=C\c1cn(-c2ccccc2)nc1-c1ccccc1	inactive

SMILES	GFP fluorescence, higher = induction
O=C1N(c2ccccc2C(F)(F)F)O[C@@]1(c1ccccc1)C1CCCCC1	inactive
O=C(COc1ccccc1)NNC(=S)NC(=O)c1ccccc1	inactive
O=c1c2cnn(-c3ccccc3)c2ncn1Cc1ccco1	inactive
O=[N+]([O-])c1cc(S(=O)(=O)C(F)(F)F)ccc1Sc1nc2ccccc2s1	inactive
O=C(COc1ccc(F)cc1Cl)Nc1nc(-c2ccccn2)cs1	inactive
O=C(OCn1ncc(Br)c(Br)c1=O)c1ccccc1Cl	inactive
O=C(Nc1nc(-c2ccccn2)cs1)C1COc2ccccc2O1 (configuration not stated)	inactive
COc1ccc(N2C(=O)CC(Sc3ncn[nH]3)C2=O)c(OC)c1 (configuration not stated)	inactive
CC(=O)Oc1ccc(/C=c2\sc3ncnn3c2=O)cc1	inactive
O=C(CCS(=O)(=O)c1ccccc1)Nc1nc(-c2ccccn2)cs1	inactive
O=C(/C=C/c1ccccc1)c1cc(Br)ccc(=O)c1O	inactive
O=C1C=CC(=O)N1c1ccc(N2CCCCC2)cc1	inactive
O=C(Sc1cccc2cccnc12)c1ccccc1Br	inactive
C=CCn1c(C)c(/C=C/c2cc[n+](C)cc2)c2ccccc21	inactive
O=C(CCc1ccccc1)NNC(=S)NC(=O)c1ccccc1	inactive
On1ccccc1=S	inactive
